Measured values as given in PMC12682947, “Identification of New KCNT1‐Epilepsy Drugs by In Silico, Cell, and Drosophila Modeling” (Annals of Neurology, 2025).
Where a name gives a salt, the structure may show the parent alone.

Molecular target: T1, G288S mutant KCNT1 channels (Homo sapiens, UniProt Q5JUK3, G269S)
T1 construct: YFP-6His; expressed in transfected cells; host or cells: HEK293T
T1 sequence (Q5JUK3 1-1235 isoform Q5JUK3-3 G288S): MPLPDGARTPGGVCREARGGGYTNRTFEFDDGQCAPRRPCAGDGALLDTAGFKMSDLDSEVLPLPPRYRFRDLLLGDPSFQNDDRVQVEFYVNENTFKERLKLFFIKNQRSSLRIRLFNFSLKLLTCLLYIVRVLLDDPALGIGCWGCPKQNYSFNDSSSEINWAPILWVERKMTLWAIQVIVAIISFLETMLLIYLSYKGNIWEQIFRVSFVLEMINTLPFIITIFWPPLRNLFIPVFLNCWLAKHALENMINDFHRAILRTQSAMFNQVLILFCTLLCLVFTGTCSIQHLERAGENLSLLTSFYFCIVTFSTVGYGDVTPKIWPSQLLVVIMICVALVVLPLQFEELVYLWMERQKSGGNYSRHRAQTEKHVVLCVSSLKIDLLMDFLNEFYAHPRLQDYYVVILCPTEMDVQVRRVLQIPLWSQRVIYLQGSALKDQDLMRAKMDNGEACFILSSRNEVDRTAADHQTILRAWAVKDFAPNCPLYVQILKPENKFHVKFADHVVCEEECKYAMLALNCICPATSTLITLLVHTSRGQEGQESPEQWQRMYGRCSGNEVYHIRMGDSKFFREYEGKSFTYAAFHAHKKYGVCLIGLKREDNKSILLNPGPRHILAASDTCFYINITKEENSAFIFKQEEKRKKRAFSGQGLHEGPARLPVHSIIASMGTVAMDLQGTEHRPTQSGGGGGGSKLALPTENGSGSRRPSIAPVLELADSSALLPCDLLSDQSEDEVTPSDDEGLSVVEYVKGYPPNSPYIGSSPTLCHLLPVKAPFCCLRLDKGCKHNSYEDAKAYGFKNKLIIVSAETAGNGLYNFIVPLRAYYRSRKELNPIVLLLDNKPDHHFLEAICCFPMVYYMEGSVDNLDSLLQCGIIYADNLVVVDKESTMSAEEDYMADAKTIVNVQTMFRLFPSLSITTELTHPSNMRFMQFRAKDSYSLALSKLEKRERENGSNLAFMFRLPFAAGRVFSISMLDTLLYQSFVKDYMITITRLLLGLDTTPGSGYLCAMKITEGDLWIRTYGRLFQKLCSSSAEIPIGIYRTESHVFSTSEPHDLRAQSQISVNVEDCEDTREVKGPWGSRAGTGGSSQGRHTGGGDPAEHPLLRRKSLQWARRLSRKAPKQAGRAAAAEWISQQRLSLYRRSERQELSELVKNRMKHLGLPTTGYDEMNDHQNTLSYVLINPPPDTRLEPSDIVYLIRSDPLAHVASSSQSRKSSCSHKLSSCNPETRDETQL
Test: Inside-out patch clamp of HEK293T cells expressing G288S KCNT1
Assay type: cell-based
Details: inside-out patches, mean ± SEM
Protocol: The CHO cells were cultured in Dulbecco's modified Eagle's Medium (ThermoFisher, UK) supplemented with 10% (v/v) fetal bovine serum, 50 U/ml penicillin and 0.05 mg/ml streptomycin, and incubated at 37°C in 5% CO2 atmosphere. For whole cell recording of WT/Y796H KCNT1, CHO cells were transiently co‐transfected with concatemeric WT/Y796H and EYFP, as described previously.[29] For electrophysiological experiments, cells were plated onto borosilicate glass cover slips and used 2 to 4 days later. Human embryonic kidney 293T cells (HEK293T) were cultured in the same manner, but with medium supplemented with 2 mM L‐glutamine, and 1% (v/v) nonessential amino acids. For excised inside‐out recording of homomeric WT or mutant YFP‐tagged KCNT1, HEK293T cells plated on glass cover slips were transfected using Attractene Transfection Reagent (Qiagen, Germany) according to the manufacturer's instructions and used 2 to 3 days later.
Inside‐out patch clamp recordings were made at room temperature (23°C) from transiently transfected HEK293T cells, as described previously.[11] The pipette solution contained, in mM, 140 NaCl, 4 KCl, 2 CaCl2, 2 MgCl2, and 10 HEPES adjusted to pH 7.4 with NaOH. […] KCNT1 currents were recorded using 2 voltage protocols, depending on the number of active channels in the patch before drug application. Macroscopic currents (number of active channels > 15) were recorded in response to 100 ms voltage ramps between −120 and 120 mV applied every 2 seconds from a holding potential of −78 mV. […] With a lower number of active channels in the patch (3–15), current traces were recorded in response to 15‐second voltage steps to −20, 0, and 20 mV from a holding potential of −78 mV. Currents recorded at each voltage and each drug concentration were averaged over the duration of the trace and normalized to the average amplitudes of the corresponding current traces in drug‐free solution. […] Single channel data were analyzed using Ana software developed by Dr Michael Pusch (Istituto di Biofisica, Genova, Italy; http://users.ge.ibf.cnr.it/pusch/programs-mik.htm). […]

Q: With `O=C(OCCN1CCN(c2cccc(C(F)(F)F)c2)CC1)c1ccccc1Nc1ccnc2cc(C(F)(F)F)ccc12` [antrafenine] as the compound, how does the IC50 read?
A: 13.3 ± 3.7 nM

Q: For `CC(C)c1c(C(=O)Nc2ccccc2)c(-c2ccccc2)c(-c2ccc(F)cc2)n1CC[C@@H](O)C[C@@H](O)CC(=O)O` [atorvastatin], which IC50 is on record?
A: 2600 ± 1600 nM

Q: `Cc1c(O)cccc1C(=O)N[C@@H](CSc1ccccc1)[C@H](O)CN1C[C@H]2CCCC[C@H]2C[C@H]1C(=O)NC(C)(C)C` [nelfinavir mesylate] was tested. Which IC50 did it give?
A: 9.5 ± 1.8 nM
